# Columns and labels:
# male Sprague-Dawley rats = assay: Cholesterol Lowering Index: total blood cholesterol (clinical chemistry) in treated versus vehicle-treated rats; type: in vivo, rat; conditions: for Chol index (fold reduction) / Cholesterol Index (fold reduction): male rats; for Chol index (fold reduction): vs vehicle; for reduction in cholesterol: extremes of the twenty treatments of table 1, treated versus untreated rats; for Cholesterol Index (fold reduction): Table 4
# From the text: Compound dosing was based on the acute dose LD50s recorded in published reference or literature sources. […] The MTD (maximum tolerated dose) was then selected as the dose at which the animals […] 5-10% body weight during the 5-day range finding study. […] In addition, the clinical observations must show no or mild clinical signs during the whole of the range-finding study. At the next highest dose, signs and symptoms of adverse effects and exceeding those of the MTD should be seen to occur. Should these criteria not be met, the range-finding study is repeated using a modified dose range.
# (§1) After determination of the MTD and FED for a compound, each compound was dissolved in a vehicle for administration on day 1 of the study (additional daily doses were stored as frozen aliquots from this initial formulation). Each compound was administered to three individual male Sprague-Dawley rats for each of the two doses (MTD and FED) for one of four different times (0.25 day, 1 day, 3 days, and 5 days), yielding a total of up to 24 animals per compound study. Vehicle choice was based on solubility of the compound, effect of food on adsorption, and the vehicles used in the literature reports examined during the FED selection investigations, described above. Generally, the route and vehicle in which the FED was defined are used. When there was a choice of routes and vehicles, oral routes were chosen over injection routes. Many compounds, especially oncolytics, are only administerable intravenously. In such cases, the compound was administered as an intravenous formulation into the tail vein. Orally administered compounds were given dissolved in either water, 1% carboxymethycellulose (CMC) or corn oil. Intravenously and intraperitoneally administered compounds were given in 0.9% saline. Subcutaneously administered compounds were given in corn oil. Animal body weights were determined at 1 day and, where appropriate, at 4 days, before necropsy, and clinical observations were made on a daily basis. Control animals were dosed with vehicle only. Three male animals were used for each dose and time combination used for the compound treatment.
# (§2) Tissue harvest and handling: After the allocated treatment time, the tissues from the animals were harvested. […] All the tissues collected were divided to provide samples for histopathological analyses, and the remainder of each tissue was then snap-frozen. […] The following blood constituents were measured: Blood Urea Nitrogen (BUN), Creatinine (CRE), Glucose (GLU), Alanine Transaminase (ALT), Aspartate Aminotrans-ferase (AST), Alkaline Phosphatase (ALP), Total Bilirubin (TBI), Sodium (SOD), Potassium (POT), Chloride (CHL), Phosphorus (PHO), Total Protein (TPR), Albumin (ALB), Cholesterol (CHO), Creatine Phosphokinase (CPK), Lactate Dehydrogenase (LDH), Carbon Dioxide (CO2), Uric Acid (UA), and Lipase. […] The parameters were measured using a Baker 9000 blood cell analysis instrument according to the manufactures instructions. The following blood constituents were measured: Leukocyte count (WBC), Differential Leukocyte counts, Erythrocyte count (RBC), Hemoglobin concentration (HGB), Hematocrit (HCT), Mean Corpuscular Volume (MCV), Mean Corpuscular Hemoglobin (MCH), Mean Corpuscular Hemoglobin Concentration (MCC), Thrombocyte Count (PLC). Histopathology: Histopathological analyses of hematoxylin and eosin-stained tissue sections were performed and peer-reviewed by board-certified (Diplomate, American College of Veterinary Pathologists) veterinary pathologists. Preparation of Enriched mRNA: Punch Biopsies were Taken from the Frozen Tissues and were completely homogenized before being processed using the MagNA Pure robot. (Roche Diagnostics Corp., Indianapolis, Ind.) in combination with the MagNA Pure LC RNA Isolation kit II (Roche Diagnostics Corp).
# livers of rats = assay: Signature Projection Score (SPS): match of liver gene expression to the Cholesterol Reduction Signature; type: in vivo; conditions: rat liver, maximum of training treatments = 100
# Procedure: as §1
# as §2, with “Corp). The amount of lysis buffer was adjusted to allow 1 ml per 50 mg for liver tissue, or 1 ml per 80 mg for all other tissues. After complete homogenization and before loading of the samples into the 32-well MagNA Pure plate, the samples were syringed 5-6 times using a 20-gauge 3-ml syringe to ensure a smooth solution for robotic processing. Tissue sample processing was performed in duplicate wells (loading 150 μl of homogenized sample and 150 μl of additional lysis buffere to each well) of the MagNA Pure LC, which is programmed to extract mRNA using oligo-dT selection technology into a final elution volume of 100 μl. Poly A(+) RNA sample concentration was performed using a standard ethanol precipitation protocol in the presence of glycogen (50 μg/ml).” for “Corp).”
# rat = conditions: ovarectomized female rats; cited from earlier work
smiles,measurement,setting,value
"CC[C@H](C)C(=O)O[C@H]1C[C@@H](C)C=C2C=C[C@H](C)[C@H](CC[C@@H]3C[C@@H](O)CC(=O)O3)[C@H]21 (relative stereo) [LOVASTATIN, (1S-(1α(R*),3α,7β,8β(2S*,4S*)-8αβ)-2-methylbutanoic acid 1,2,3,7,8,8a-hexahydro-3,7-dimethyl-8-(2-(tetrahydro-4-hydroxy-6-oxo-2H-pyran-2-yl)ethyl)-1-naphthalenyl ester]",Chol index (fold reduction),"male Sprague-Dawley rats; dose 450, time 5 days",2.39 fold reduction
same,reduction in cholesterol,male Sprague-Dawley rats,2 fold
C[C@]12CC[C@@H]3c4ccc(OC(=O)c5ccccc5)cc4CC[C@H]3[C@@H]1CC[C@@H]2O [BETA-ESTRADIOL 3-BENZOATE],Cholesterol Index (fold reduction),"male Sprague-Dawley rats; dose 2, time point 3 days",2.0 fold reduction
same,SPS,"livers of rats; dose 2 (mg/ml), time point 3 days",46.4
"C[C@]12CC[C@@H]3c4ccc(O)cc4CC[C@H]3[C@@H]1CC[C@@H]2O [BETA-ESTRADIOL, (17β)-estra-1,3,5(10)-triene-3,17-diol]",Cholesterol Index (fold reduction),"male Sprague-Dawley rats; dose 150, time point 3 days",3.1 fold reduction
same,Cholesterol Index (fold reduction),"male Sprague-Dawley rats; dose 150, time point 5 days",4.7 fold reduction
same,Chol index (fold reduction),"male Sprague-Dawley rats; dose 150, time 3 days",3.21 fold reduction
same,Chol index (fold reduction),"male Sprague-Dawley rats; dose 150, time 5 days",4.94 fold reduction
same,SPS,"livers of rats; dose 150 (mg/ml), time point 1 day",53
same,SPS,"livers of rats; dose 150 (mg/ml), time point 3 days",63.4
same,SPS,"livers of rats; dose 150 (mg/ml), time point 5 days",63.7
"CCOC(=O)C(C)(C)Oc1ccc(Cl)cc1 [CLOFIBRATE, 2-(4-chlorophenoxy)-2-methylpropanoic acid ethyl ester]",Chol index (fold reduction),"male Sprague-Dawley rats; dose 500, time 3 days",2.43 fold reduction
C[C@@H]1C[C@H]2[C@@H]3CCC4=CC(=O)C=C[C@]4(C)[C@@]3(F)[C@@H](O)C[C@]2(C)[C@@]1(O)C(=O)CO [DEXAMETHASONE],Cholesterol Index (fold reduction),"male Sprague-Dawley rats; dose 1, time point 3 days",0.9 fold reduction
same,SPS,"livers of rats; dose 1 (mg/ml), time point 3 days",49.5
"CC/C(=C(/CC)c1ccc(O)cc1)c1ccc(O)cc1 [DIETHYLSTILBESTROL, 3,4-bis-(4-hydroxyphenyl)-3-hexene]",Cholesterol Index (fold reduction),"male Sprague-Dawley rats; dose 2.8, time point 3 days",3.0 fold reduction
same,Cholesterol Index (fold reduction),"male Sprague-Dawley rats; dose 2.8, time point 5 days",3.4 fold reduction
same,Chol index (fold reduction),"male Sprague-Dawley rats; dose 2.8, time 3 days",3.10 fold reduction
same,Chol index (fold reduction),"male Sprague-Dawley rats; dose 2.8, time 5 days",3.56 fold reduction
same,SPS,"livers of rats; dose 2.8 (mg/ml), time point 1 day",57.3
same,SPS,"livers of rats; dose 2.8 (mg/ml), time point 3 days",71.2
same,SPS,"livers of rats; dose 2.8 (mg/ml), time point 5 days",80.9
same,SPS,"livers of rats; dose 300 (mg/ml), time point 1 day",59
same,SPS,"livers of rats; dose 300 (mg/ml), time point 3 days",83.3
same,SPS,"livers of rats; dose 300 (mg/ml), time point 5 days",91.1
"C[C@]12CC[C@@H]3c4ccc(O)cc4CC[C@H]3[C@@H]1C[C@@H](O)[C@@H]2O [ESTRIOL, (16α, 17β)-estra-1,3,5(10)-triene-3,16,17-triol]",Cholesterol Index (fold reduction),"male Sprague-Dawley rats; dose 313, time point 3 days",3.2 fold reduction
same,Cholesterol Index (fold reduction),"male Sprague-Dawley rats; dose 313, time point 5 days",20.9 fold reduction
same,Chol index (fold reduction),"male Sprague-Dawley rats; dose 313, time 3 days",3.30 fold reduction
same,Chol index (fold reduction),"male Sprague-Dawley rats; dose 313, time 5 days",20.28 fold reduction
same,reduction in cholesterol,male Sprague-Dawley rats,20 fold
same,SPS,"livers of rats; dose 313 (mg/ml), time point 1 day",51.5
same,SPS,"livers of rats; dose 313 (mg/ml), time point 3 days",65.1
same,SPS,"livers of rats; dose 313 (mg/ml), time point 5 days",83.4
"OC(Cn1cncn1)(Cn1cncn1)c1ccc(F)cc1F [FLUCONAZOLE, α-(2,4-difluorophenyl)-α-(1H-1,2,4-triazol-1-ylmethyl)-1H-1,2,4-triazole-1-ethanol]",Cholesterol Index (fold reduction),"male Sprague-Dawley rats; dose 394, time point 5 days",3.7 fold reduction
same,Chol index (fold reduction),"male Sprague-Dawley rats; dose 394, time 5 days",3.94 fold reduction
same,SPS,"livers of rats; dose 394 (mg/ml), time point 5 days",59.7
C#C[C@]1(OC(C)=O)CC[C@H]2[C@@H]3CCC4=CC(=O)CC[C@@H]4[C@H]3CC[C@@]21C [NORETHINDRONE ACETATE],Cholesterol Index (fold reduction),"male Sprague-Dawley rats; dose 125, time point 3 days",2.0 fold reduction
same,Cholesterol Index (fold reduction),"male Sprague-Dawley rats; dose 125, time point 5 days",4.0 fold reduction
same,Chol index (fold reduction),"male Sprague-Dawley rats; dose 125, time 5 days",4.07 fold reduction
same,SPS,"livers of rats; dose 125 (mg/ml), time point 1 day",58.8
same,SPS,"livers of rats; dose 125 (mg/ml), time point 3 days",81.6
same,SPS,"livers of rats; dose 125 (mg/ml), time point 5 days",80.7
"C#C[C@]1(O)CC[C@H]2[C@@H]3CCC4=CC(=O)CC[C@@H]4[C@H]3CC[C@@]21C [NORETHINDRONE, (17α)-17-hydroxy-19-norpregn-4-en-20-yn-3-one]",Cholesterol Index (fold reduction),"male Sprague-Dawley rats; dose 375, time point 3 days",3.5 fold reduction
same,Chol index (fold reduction),"male Sprague-Dawley rats; dose 375, time 3 days",3.56 fold reduction
same,Chol index (fold reduction),"male Sprague-Dawley rats; dose 375, time 5 days",3.06 fold reduction
"O=C(c1ccc(OCCN2CCCCC2)cc1)c1c(-c2ccc(O)cc2)sc2cc(O)ccc12 [RALOXIFENE, [6-hydroxy-2-(4-hydroxyphenyl)-3-(4-[2-piperidin-1-yl)ethoxy]benzoyl)-benzo[b]thiene]",Chol index (fold reduction),"male Sprague-Dawley rats; dose 6.5, time 5 days",2.61 fold reduction
same,effect on cholesterol,rat,lower cholesterol
